Laboratory results taken from patent publication US11007273B2, “Prochelators as targeted prodrugs for prostate cancer and methods of making and using same” (Duke University, priority 2017, dated 2021).
“Also recorded” adds a separate entry of the source.

Legend:
GGT = GGT (Homo sapiens, UniProt P19440); test: GGT enzyme cleavage assay (LC/MS); format: biochemical; details: 100 μM, 100 U/L GGT, 15 min, then 500 μM CuSO4
Procedure: GGT Enzyme cleavage assay: In order to detect DTC liberated from prodrug by reactivity with GGT, 100 μM Glu-DTC was exposed to 100 U/L GGT in the presence of 1 mM Gly-Gly (PBS; pH 7.4; 37° C.). After 15 min, 500 μM CuSO4 was added to the vial, mixed well, then analyzed by LC/MS using an H2O: acetonitrile gradient for 25 min starting with 95% H2O:acetonitrile to 5% H2O:acetonitrile. A peak eluting at 12 min was observed corresponding to Glu-DTC as detected by MS, while a second peak eluting at 22 min corresponded to Cu(DTC)2 as detected by MS.

22Rv1 cells = test: Glu-DTC cleavage in cell culture, 22Rv1; format: cell-based, human; details: 100 μM
Procedure: Glu-DTC cleavage in cell culture: 22Rv1 and PWR-1E cell lines were plated into a 24 well plate (2×10^5 cells/well) with their respective growth media and allowed to adhere overnight. The following day, the growth media was removed, and each cell line was washed with PBS. 2 mL of 100 μM Glu-DTC in serum free media along with 1 mM Gly-Gly was added to the cells. One batch of 22Rv1 were treated with 2 mM Acivicin, a GGT inhibitor, along with Glu-DTC and Gly-Gly. 100 μL aliquots were taken at various time points over 72 h. Each aliquot was analyzed via HPLC to generate chromatographs of the progress of Glu-DTC digestion. Caffeine was added as reference and the ratio of Glu-DTC peak area with respect to caffeine was plotted as percentage considering initial Glu-DTC level as 100%.

Sequence of GGT (P19440 whole entry, species assumed): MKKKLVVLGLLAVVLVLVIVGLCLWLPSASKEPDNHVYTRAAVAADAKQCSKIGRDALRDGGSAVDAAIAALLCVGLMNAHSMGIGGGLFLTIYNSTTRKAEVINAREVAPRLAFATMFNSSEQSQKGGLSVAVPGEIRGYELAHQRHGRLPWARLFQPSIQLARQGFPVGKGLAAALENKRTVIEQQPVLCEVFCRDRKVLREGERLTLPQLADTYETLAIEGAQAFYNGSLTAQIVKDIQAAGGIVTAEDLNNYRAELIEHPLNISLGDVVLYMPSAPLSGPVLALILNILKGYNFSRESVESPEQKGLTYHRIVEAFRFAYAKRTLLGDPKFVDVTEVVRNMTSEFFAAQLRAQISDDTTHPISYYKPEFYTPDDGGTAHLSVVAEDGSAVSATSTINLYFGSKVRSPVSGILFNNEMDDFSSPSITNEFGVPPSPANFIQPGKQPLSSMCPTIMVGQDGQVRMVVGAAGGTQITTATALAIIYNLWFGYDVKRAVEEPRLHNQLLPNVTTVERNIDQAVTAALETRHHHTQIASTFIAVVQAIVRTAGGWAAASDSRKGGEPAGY

## CCN(CC)C(=S)SCc1ccc(NC(=O)CC[C@H](N)C(=O)O)cc1 [Glu-DTC]
GGT
  prodrug cleavage and Cu(DTC)2 formation by LC/MS: decrease in Glu-DTC peak and formation of Cu(DTC)2
22Rv1 cells; 22Rv1, 24 h, 1 mM GlyGly
  level of intact Glu-DTC in supernatant: significant loss of detectable Glu-DTC; also recorded: depletion was observed
22Rv1 cells; 22Rv1, co-exposure with Acivicin
  stability time with GGT inhibitor Acivicin: at least 24 h
22Rv1 cells; 22Rv1 treated with GGT-inhibitor Acivicin, 24 h
  level of intact Glu-DTC in supernatant with Acivicin: unchanged
